Results published in US11555180B2, “Methods and apparatuses for patient-derived micro-organospheres” (Xilis, Inc., priority 2019, dated 2023).

Columns and labels:
traditional cell line = experiment: traditional (2D) tumor cell line dosed with drug; format: cell-based; conditions: Example 2, FIG. 22A, all dose ranges examined
Description: As mentioned above, the Patient-Derived Micro-Organospheres and methods of using them to screen for drug compositions may be used to accurately predict the response of a patient tumor to one or more drug therapies. […] For example, in FIG. 22A-22D, the Micro-Organospheres, but not a cell line, was able to correlate with patient response.

[1] = system: tumor Micro-Organospheres; experiment: drug screen on Patient-Derived Micro-Organospheres formed from a patient tumor biopsy; format: cell-based; conditions: for percent survival of the Micro-Organospheres in the presence of the drug: Example 3, FIG. 23B, 23C
Description: The Patient-Derived Micro-Organospheres described herein may be used in a variety of different assays, and in particular may be used to determine drug formulation effects, including toxicity, on normal and/or abnormal (e.g., cancerous) tissue. For example, drug screening may include applying Micro-Organospheres into all or some wells of multi-well (e.g., a 96-well) plate. Alternatively custom plates may be used (e.g., a 10,000 micro-well array may be formed of a 100 × 100 wells). The Micro-Organospheres (e.g., gel droplets) may be applied into, or in some variations onto the multiple microwell arrays and incubated with culture medium. The Micro-Organospheres may be cultured over the course of 3-5 days. In some variations, on day 5, the wells (e.g., micro-reactors) may then be dosed with drug compounds, e.g., based on a set of FDA-approved anticancer drugs, to examine the effects of the drug panel. For example, the drugs texted may be based on the National Cancer Institute (Division of Cancer Treatment and Diagnosis (11)) screen, consisting of 147 agents intended to enable cancer research, drug discovery and combination drug studies. On Day 7, the Micro-Organospheres may be imaged via standard fluorescent microscopy and ranked based on drug response.
In this example, the screening assay may be automated. This may enable repeatable and automated workflow, which may increase the number of drugs screened from a few to hundreds. FIGS. 17A-17E illustrate one example of this workflow. In FIG. 17A, a tumor biopsy is taken and a plurality (e.g., >10,000) Micro-Organospheres are formed as described above (in FIG. 17A the junction region forming the Micro-Organospheres is illustrated).
The workflow shown in FIGS. 17A-17E may enable an integrated device to be used for growing, dosing and/or reviewing the Micro-Organospheres. […] Their response to drug treatments, such as IC-50, cytotoxicity, and growth curves, may be measured to identify effective therapeutics against the patient's tumor.

patient tumor = experiment: actual response of the patient's tumor to treatment with the drug; format: in vivo
Description: In a similar set of experiments, Micro-Organospheres were generated from biopsy material (FIG. 23A), and a drug effect screen was performed using the resulting Micro-Organospheres. […] Thus, the Micro-Organospheres correlated strongly with patient response to the standard of care drugs. In this case, the patient endured six months of side effects and toxicities that may have been avoided by the predicted response from the Micro-Organospheres, indicating (within 7-10 days from the biopsy) that the tumor would not respond to these drugs.

Row | Structure (SMILES) | effect of the drug on the cell line (traditional cell line) | cell survival of tumor Micro-Organospheres ([1]; Example 2, FIG. 22B) | percent survival of the Micro-Organospheres in the presence of the drug [1] | tumor response to treatment (patient tumor; Example 2, FIG. 22C (before) and 22D (post treatment)) | patient response to treatment (patient tumor; Example 3, treated with both Oxalipalatin and Irinotecan, after 6 months of treatment)
1 | O=C1[O][Pt]2([NH][C@@H]3CCCC[C@H]3[NH]2)[O]C1=O [Oxaliplatin] | no effect | significant decreases in cell survival | no change in the percent survival | responded to treatment | no response
2 | CCc1c2c(nc3ccc(OC(=O)N4CCC(N5CCCCC5)CC4)cc13)-c1cc3c(c(=O)n1C2)COC(=O)[C@]3(O)CC [Irinotecan] | – | – | lack of effect | – | –
